Experimental data published in ChEMBL document CHEMBL5316307, “Searching for Novel Noncovalent Nuclear Export Inhibitors through a Drug Repurposing Approach” (J Med Chem, 2023).
Activity calls are given as the source filed them. No cut-off for these calls is given here.

Tests used:
[1] = Stability of the compound at 100 uM in presence of DTT; format: physicochemical
HGC-27 = experiment: Cytotoxicity against human HGC-27 cells assessed as inhibition of cell growth incubated for 72 hrs by SRB assay; format: functional, cell-based; details: HGC-27, 72 h
Exportin-1 [2] = target: T1, Exportin-1 (Homo sapiens, UniProt O14980); experiment: Binding affinity to CRM1 in human HeLa cells assessed as thermal stabilization at 100 uM at 4 to 90 degreeC incubated for 3 mins by […] analysis; format: cell-based
T1 sequence (O14980 whole entry): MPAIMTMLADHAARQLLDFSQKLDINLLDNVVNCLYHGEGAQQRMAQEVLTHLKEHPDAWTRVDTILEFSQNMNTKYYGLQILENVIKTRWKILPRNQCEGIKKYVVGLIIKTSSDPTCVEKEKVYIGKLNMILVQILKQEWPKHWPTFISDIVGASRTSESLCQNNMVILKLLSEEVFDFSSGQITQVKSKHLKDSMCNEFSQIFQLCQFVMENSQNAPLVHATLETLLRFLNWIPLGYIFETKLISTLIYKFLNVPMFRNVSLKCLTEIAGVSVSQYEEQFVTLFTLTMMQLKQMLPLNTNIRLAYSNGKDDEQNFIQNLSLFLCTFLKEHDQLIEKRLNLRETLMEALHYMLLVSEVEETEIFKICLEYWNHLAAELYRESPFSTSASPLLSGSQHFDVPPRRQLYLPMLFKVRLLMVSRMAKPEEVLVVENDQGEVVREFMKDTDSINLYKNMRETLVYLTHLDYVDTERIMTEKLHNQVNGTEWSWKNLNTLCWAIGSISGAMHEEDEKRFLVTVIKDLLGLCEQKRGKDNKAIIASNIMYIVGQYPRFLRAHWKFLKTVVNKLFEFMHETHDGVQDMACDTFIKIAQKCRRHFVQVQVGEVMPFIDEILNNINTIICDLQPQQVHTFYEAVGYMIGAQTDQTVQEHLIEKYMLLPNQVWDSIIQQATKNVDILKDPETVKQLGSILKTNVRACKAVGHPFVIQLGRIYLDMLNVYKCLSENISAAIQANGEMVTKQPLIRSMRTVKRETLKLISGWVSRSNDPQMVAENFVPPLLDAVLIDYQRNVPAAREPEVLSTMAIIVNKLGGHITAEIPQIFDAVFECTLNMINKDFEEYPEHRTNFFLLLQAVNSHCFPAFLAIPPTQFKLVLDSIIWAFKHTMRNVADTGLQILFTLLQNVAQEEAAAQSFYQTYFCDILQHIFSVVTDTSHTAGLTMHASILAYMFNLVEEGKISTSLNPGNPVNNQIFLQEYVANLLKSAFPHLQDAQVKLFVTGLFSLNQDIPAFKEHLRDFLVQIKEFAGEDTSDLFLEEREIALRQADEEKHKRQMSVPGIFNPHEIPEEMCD

Exportin-1 [3] = target: T1, Exportin-1; experiment: Inhibition of human CRM1 at 50 uM by GST-NES MVM based pulldown assay
Exportin-1 [4] = target: T1, Exportin-1; experiment: Inhibition of human CRM1 at 3 to 30 uM by GST-NES MVM based pulldown assay; details: dose 3-30 µM
Exportin-1 [5] = target: T1, Exportin-1; experiment: Non-covalent inhibition of human CRM1 at 100 uM by GST-NES MVM based pulldown assay
[6] = system: Exportin-1 (Homo sapiens), O14980 [C528S]; experiment: Inhibition of human CRM1 C7 fragment C528S mutant at 50 to 100 uM by GST-NES MVM based pulldown assay; details: dose 50-100 µM
Sequence of Exportin-1 (Homo sapiens), O14980 [C528S] (O14980 whole entry C528S, the tested form may be a part): as the sequence (O14980 whole entry) above, with C528S counted along it

PANC-1 = experiment: Cytotoxicity against human PANC-1 cells assessed as inhibition of cell growth at 50 uM incubated for 72 hrs by SRB assay; format: functional, cell-based
A2780 = experiment: Cytotoxicity against human A2780 cells assessed as inhibition of cell growth at 50 uM incubated for 72 hrs by SRB assay; format: functional, cell-based
MDA-MB-453 [7] = experiment: Synergistic cytotoxicity against human MDA-MB-453 cells assessed as combination index at 100 uM incubated for 3 days in presence of 270 nM doxorubicin by SRB assay; format: functional; details: time 3 day
Exportin-1 [8] = target: T1, Exportin-1; experiment: Binding affinity to NES groove of human CRM1 C7 fragment at 50 to 100 uM by GST-NES MVM based pulldown assay; details: dose 50-100 µM
MDA-MB-453 [9] = experiment: Cytotoxicity against human MDA-MB-453 cells assessed as inhibition of cell growth at 50 uM incubated for 72 hrs by SRB assay; format: functional, cell-based
MDA-MB-453 [10] = experiment: Synergistic cytotoxicity against human MDA-MB-453 cells assessed as combination index at 100 uM incubated for 3 days in presence of 810 nM doxorubicin by SRB assay; format: functional; details: time 3 day
HepG2 = experiment: Cytotoxicity against human HepG2 cells assessed as inhibition of cell growth at 50 uM incubated for 72 hrs by SRB assay; format: functional, cell-based
MGC-803 = experiment: Cytotoxicity against human MGC-803 cells assessed as inhibition of cell growth at 50 uM incubated for 72 hrs by SRB assay; format: functional, cell-based
Exportin-1 [11] = target: T1, Exportin-1; experiment: Competitive inhibition of human CRM1 assessed as dissociation constant incubated in presence of RanGTP and IAF-conjugated protein kinase inhibitor peptide by MST assay
SW480 = experiment: Cytotoxicity against human SW480 cells assessed as inhibition of cell growth at 50 uM incubated for 72 hrs by SRB assay; format: functional, cell-based
MDA-MB-453 [12] = experiment: Synergistic cytotoxicity against human MDA-MB-453 cells assessed as combination index at 100 uM incubated for 3 days in presence of 30 nM doxorubicin by SRB assay; format: functional; details: time 3 day
MDA-MB-453 [13] = experiment: Synergistic cytotoxicity against human MDA-MB-453 cells assessed as combination index at 100 uM incubated for 3 days in presence of 10 nM doxorubicin by SRB assay; format: functional; details: time 3 day
Exportin-1 [14] = target: T1, Exportin-1; experiment: Inhibition of CRM1 in semi-permeabilized human HeLa cells transfected with GFP-NES-NLS fusion plasmid assessed as inhibition of nuclear export of cargoes at 50 to 100 uM incubated for 30 mins by immunostaining analysis; format: cell-based; details: dose 50-100 µM
Exportin-1 [15] = target: T1, Exportin-1; experiment: Inhibition of CRM1 in intact human HeLa cells transfected with GFP-NES-NLS fusion plasmid assessed as inhibition of nuclear export of cargoes at 200 uM incubated for 30 mins by immunostaining analysis; format: cell-based
MDA-MB-453 [16] = experiment: Synergistic cytotoxicity against human MDA-MB-453 cells assessed as combination index at 100 uM incubated for 3 days in presence of 90 nM doxorubicin by SRB assay; format: functional; details: time 3 day
HeLa = experiment: Cytotoxicity against human HeLa cells assessed as inhibition of cell growth at 50 uM incubated for 72 hrs by SRB assay; format: functional, cell-based
Ishikawa = experiment: Cytotoxicity against human Ishikawa cells assessed as inhibition of cell growth at 50 uM incubated for 72 hrs by SRB assay; format: functional, cell-based

**Q.** For `CC(C)CCNC/C=C/[S+]([O-])c1cc(C(F)(F)F)cc(C(F)(F)F)c1` (stereo unspecified), which Stability [1] is on record?
**A.** Unstable

**Q.** With `COc1cc(C(=O)N(C)S(=O)(=O)c2ccccc2C)ccc1Cc1cn(C)c2ccc(NC(=O)OC3CCCC3)cc12` as the molecule, how does the IC50 (HGC-27) read?
**A.** 285 µM

**Q.** And the Activity (Exportin-1 [2])?
**A.** inactive

**Q.** And the inhibition (Exportin-1 [3])?
**A.** inactive

**Q.** What about the inhibition (Exportin-1 [3]; tested as the 2H-labelled form) of the same molecule?
**A.** inactive

**Q.** With `[2H]C([2H])([2H])N(C(=O)c1ccc(Cc2cn(C)c3ccc(NC(=O)OC4CCCC4)cc23)c(OC)c1)S(=O)(=O)c1ccccc1C` as the molecule, how does the IC50 (HGC-27) read?
**A.** 457 µM

**Q.** For `COC(=O)Nc1ccc2c(c1)c(Cc1ccc(C(=O)NS(=O)(=O)c3ccccc3C)cc1OC)cn2C`, which IC50 (HGC-27) is on record?
**A.** 44 µM

**Q.** What about the inhibition (Exportin-1 [4]) of the same molecule?
**A.** Active

**Q.** For `COc1cc(C(=O)NS(=O)(=O)c2cccc(C)c2)ccc1Cc1cn(C)c2ccc(NC(=O)OC3CCCC3)cc12`, which IC50 (HGC-27) is on record?
**A.** 44 µM

**Q.** What about the inhibition (Exportin-1 [4]) of the same molecule?
**A.** Active

**Q.** For `COc1cc(C(=O)NS(=O)(=O)c2ccc(C)cc2)ccc1Cc1cn(C)c2ccc(NC(=O)OC3CCCC3)cc12`, which IC50 (HGC-27) is on record?
**A.** 44 µM

**Q.** With `CC(O)(CS(=O)(=O)c1ccc(F)cc1)C(=O)Nc1ccc(C#N)c(C(F)(F)F)c1` (stereo unspecified) as the molecule, how does the inhibition (Exportin-1 [5]) read?
**A.** inactive

**Q.** With `N[C@@H](CC(=O)N1CCn2c(nnc2C(F)(F)F)C1)Cc1cc(F)c(F)cc1F` as the molecule, how does the inhibition (Exportin-1 [5]) read?
**A.** inactive

**Q.** With `O=C(/C=C\n1cnc(-c2cc(C(F)(F)F)cc(C(F)(F)F)c2)n1)NNc1cnccn1` as the molecule, how does the inhibition [6] read?
**A.** Active

**Q.** Which Stability [1] does the source give for `COc1cc(C(=O)NS(=O)(=O)c2ccccc2C)ccc1Cc1cn(C)c2ccc(NC(=O)OC3CCCC3)cc12` [ZAFIRLUKAST] here?
**A.** Stable

**Q.** And the inhibition (PANC-1)?
**A.** Active

**Q.** What about the IC50 (HGC-27) of the same molecule?
**A.** 44 µM

**Q.** What about the inhibition (A2780) of the same molecule?
**A.** Active

**Q.** And the CI (MDA-MB-453 [7])?
**A.** 0.88

**Q.** And the inhibition (Exportin-1 [5])?
**A.** Active

**Q.** What about the Activity (Exportin-1 [8]) of the same molecule?
**A.** Active

**Q.** And the inhibition (MDA-MB-453 [9])?
**A.** Active

**Q.** And the CI (MDA-MB-453 [10])?
**A.** 0.58

**Q.** And the inhibition [6]?
**A.** inactive

**Q.** What about the inhibition (HepG2) of the same molecule?
**A.** Active

**Q.** What about the inhibition (MGC-803) of the same molecule?
**A.** Active

**Q.** What about the Kd (Exportin-1 [11]) of the same molecule?
**A.** 10 µM

**Q.** What about the inhibition (SW480) of the same molecule?
**A.** Active

**Q.** What about the Activity (Exportin-1 [2]) of the same molecule?
**A.** Active

**Q.** And the CI (MDA-MB-453 [12])?
**A.** 0.78

**Q.** What about the CI (MDA-MB-453 [13]) of the same molecule?
**A.** 0.78

**Q.** What about the inhibition (Exportin-1 [14]) of the same molecule?
**A.** Active

**Q.** And the inhibition (Exportin-1 [15])?
**A.** Active

**Q.** What about the CI (MDA-MB-453 [16]) of the same molecule?
**A.** 0.78

**Q.** What about the inhibition (HeLa) of the same molecule?
**A.** Active

**Q.** And the inhibition (Ishikawa)?
**A.** Active
